How the values were obtained:
Assay in all cases: relative viability (nuclei count vs DMSO), 5 days (fraction); higher = more cells survive
[1] = compound: COc1nc(N)nc2c1ncn2[C@@H]1O[C@H](CO)[C@@H](O)[C@@H]1O [Nelarabine] + C[C@]1(O)C[C@@H](c2nc(-c3ccc4ccc(-c5ccccc5)nc4c3)c3c(N)nccn32)C1 [Linsitinib] (partner 1 µM)
Method in brief: (§1)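 Relative viability divides the nuclei count in treated wells by that in vehicle wells. Lung cancer cell lines were seeded in 1536-well plates, dosed by pin tool the next day, and fixed and stained after 5 days in one step with final 0.05% Triton X-100, 1% formaldehyde and 1 ug/ml Hoechst. Dosing was a single drug or a fixed anchor-drug dose plus five library-drug doses (not always all listed) in √10 steps, and values are medians of duplicate plates imaged at 4×.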

[2] = compound: C=CCn1c(=O)c2cnc(Nc3ccc(N4CCN(C)CC4)cc3)nc2n1-c1cccc(C(C)(C)O)n1 [Adavosertib] + COc1cccc2cc(-c3nc([C@H]4CC[C@H](C(=O)O)CC4)n4ncnc(N)c34)[nH]c12 [OSI-027] (partner 0.5 µM)
Method in brief: as §1

[3] = compound: C=CCn1c(=O)c2cnc(Nc3ccc(N4CCN(C)CC4)cc3)nc2n1-c1cccc(C(C)(C)O)n1 [Adavosertib] + O=C(CCCCCCC(=O)Nc1ccccc1)NO [Vorinostat] (partner 1 µM)
Method in brief: as §1

[4] = compound: COc1nc(N)nc2c1ncn2[C@@H]1O[C@H](CO)[C@@H](O)[C@@H]1O [Nelarabine] + CC1(C)CCC(c2ccc(Cl)cc2)=C(CN2CCN(c3ccc(C(=O)NS(=O)(=O)c4ccc(N[C@H](CCN5CCOCC5)CSc5ccccc5)c(S(=O)(=O)C(F)(F)F)c4)cc3)CC2)C1 [Navitoclax] (partner 0.5 µM)
Method in brief: as §1

Cell Line | relative viability ([1]; first compound 0.01 µM) | relative viability ([1]; first compound 0.03162 µM) | relative viability ([1]; first compound 0.1 µM) | relative viability ([1]; first compound 0.3162 µM) | relative viability ([1]; first compound 1 µM) | relative viability ([2]; first compound 0.01 µM) | relative viability ([2]; first compound 0.03162 µM) | relative viability ([2]; first compound 0.1 µM) | relative viability ([2]; first compound 0.3162 µM) | relative viability ([3]; first compound 0.01 µM) | relative viability ([3]; first compound 0.03162 µM) | relative viability ([3]; first compound 0.1 µM) | relative viability ([3]; first compound 0.3162 µM) | relative viability ([4]; first compound 0.01 µM) | relative viability ([4]; first compound 0.03162 µM) | relative viability ([4]; first compound 0.1 µM) | relative viability ([4]; first compound 0.3162 µM) | relative viability ([4]; first compound 1 µM)
NCI-H647 | 1.7 | 1.02 | 1.26 | 1.21 | 1.35 | 0.635 | 0.609 | 0.569 | 0.26 | 0.632 | 0.538 | 0.643 | 0.212 | 1.6 | 1.01 | 1.13 | 1.43 | 1.07
NCI-H2347 | 1.08 | 1.02 | 0.968 | 0.939 | 1.04 | 0.515 | 0.414 | 0.473 | 0.298 | 0.548 | 0.71 | 0.615 | 0.533 | 0.955 | 0.799 | 0.782 | 0.782 | 0.939
NCI-H1395 | 1.1 | 1.15 | 1.17 | 0.974 | 1.2 | 0.69 | 0.727 | 0.656 | 0.492 | 0.595 | 0.759 | 0.619 | 0.504 | 1.18 | 1.16 | 1.28 | 1.19 | 1.17
NCI-H522 | – | – | – | – | – | 0.809 | 0.784 | 0.718 | 0.659 | 0.875 | 0.968 | 1.02 | 0.871 | – | – | – | – | –
NCI-H2087 | 1.06 | 0.897 | 1.06 | 1.05 | 0.914 | 0.591 | 0.685 | 0.603 | 0.478 | 0.812 | 0.637 | 0.702 | 0.826 | 1.02 | 0.944 | 0.971 | 0.9 | 0.979
EPLC-272H | 1.35 | 1.11 | 1.18 | 1.09 | 1.21 | 0.31 | 0.279 | 0.242 | 0.208 | 0.384 | 0.481 | 0.281 | 0.14 | 1.33 | 1.35 | 1.43 | 0.954 | 1.08
NCI-H838 | 1.29 | 0.907 | 1.06 | 1.11 | 1.13 | 0.425 | 0.346 | 0.391 | 0.388 | 0.706 | 0.694 | 0.701 | 0.67 | 1.48 | 1.13 | 1.22 | 1.26 | 1.25
NCI-H661 | 0.719 | 0.859 | 0.723 | 0.555 | 0.535 | 0.762 | 0.723 | 0.685 | 0.284 | 0.847 | 0.809 | 0.764 | 0.351 | – | – | – | – | –
NCI-H2170 | – | – | – | – | – | 0.703 | 0.786 | 0.632 | 0.597 | 0.866 | 0.818 | 0.788 | 0.676 | 0.564 | 0.627 | 0.65 | 0.678 | 0.552
NCI-H1703 | 1.05 | 0.66 | 0.666 | 0.541 | 0.834 | – | – | – | – | – | – | – | – | 1.28 | 0.936 | 1.24 | 1.18 | 1.18

Source: the supplement of paper PMC10307832
